From patent US9618513B2, “Compositions and methods for detecting and treating colorectal cancer” (The Regents of the University of Michigan, priority 2014, dated 2017)

Experiments:
[1] = system: primary colon cancer cell line SBCA; assay: Proliferation of primary colon cancer cell line SBCA; format: cell-based, human
Procedure: FIG. 21A-E A. Dot1L/H3K79me2 inhibitor EZP004777 (10 uM) had no effect on SUZ12 expression but reduce Sox2. B. EZP004777 had no effect on primary colon cancer cell line SBCA. C. EZH2 inhibitor DZNep reduced SBCA cell proliferation. D. SUZ12 knockdown reduced H3K27m3 level. E. Effect of I1-22 on tumor sphere assay was analyzed in shEZH2, shSUZ12 and Dznep treated cells.
Three primary colon cancer cell lines (SB, WR, JR) were established from fresh colon tissues. These primary colon cancer cells and DLD1 (ATCC) were studied. Colon cancer cells were treated with recombinant IL-22 (R&D) for different time points. The EZH2 inhibitor DZNep was added in conventional or sphere culture (see, e.g., Kryczek, I., et al., (2012) International journal of cancer 130, 29-39). Tumor cell sphere formation and gene expression were examined (see, e.g., Kryczek, I., et al., (2012) International journal of cancer 130, 29-39).

[2] = system: primary colon cancer cells; assay: Colon cancer sphere assay, primary colon cancer cells; format: cell-based, human; conditions: in the presence of IL-22, inhibitor 10 uM
Procedure: (A, B) IL-22 is expressed by immune cells in colon cancer tissues. Different cell populations were sorted from colon cancer tissues and IL-22 expression was measured by real time PCR. (5-10 donors, P<0.05). (C) IL-22 is spontaneously released by different immune cell populations in colon cancer tissues. Different CD45^+ immune subsets (10^6/ml) were sorted from colon cancer and blood, and cultured for 12 hours. IL-22 was detected via ELISA. (n=5, *P<0.05). (D, E) IL-22 is expressed by activated CD4^+ T cells in colon cancer tissues. CD45^+ subsets (10^6/ml) were sorted from colon cancer and blood, and were activated with anti-CD3 and anti-CD28 for 2 days. IL-22 was detected with ELISA (D) or intracellular staining (E). (n=5, *P<0.05). […] IL-22 mRNA was detected by real time PCR (F) and protein by ELISA (G). […] IL-22 expression was quantified with real-time PCR in the migrated and non-migrated cells. Results are expressed as the mean relative expression (H). The phenotype of migrated cells, non-migrated cells and control (before migration) was analyzed by FACS (I). […] The mRNA of stem cell core genes was detected by real-time PCR after 6 hours (K) and ALDH activity was detected by FACS after 48 hours (L). […]
(A) IL-22 induces H3K79me2 in colon cancer cells. […] Total histone modifications were analyzed by western blot. […] Sphere numbers were recorded. […] DOT1L complex gene expression was quantified by real-time PCR. […]

SMILES: CC(C)N(CCCNC(=O)Nc1ccc(C(C)(C)C)cc1)C[C@H]1O[C@@H](n2ccc3c(N)ncnc32)[C@H](O)[C@@H]1O [EPZ004777]
- SBCA cell proliferation [1]: no effect
- sphere formation induced by IL-22 [2]: suppressed
